Assay results from PMC6389993, “Quercetin and its metabolite isorhamnetin promote glucose uptake through different signalling pathways in myotubes” (Scientific Reports, 2019).

What was measured:
Type in all cases: cell-based, rat
Akt = experiment: Phosphorylation of Akt in L6 myotubes (western blot); conditions: 15 min; for Akt phosphorylation at Ser473: higher concentrations (1 μM and 10 μM)
Description: (§1) For in vitro cell culture experiments, after serum starvation for 18 h, myotubes were treated with various concentrations of quercetin or isorhamnetin (0.1–10 nM) for 15 min; DMSO (final 0.1%) was used as a vehicle control. As positive controls, 100 nM insulin, 1 mM AICAR, 10 nM leptin, or 100 ng/mL IL-15 were used for insulin, AMPK, JAK2/STAT, or JAK3/STAT signalling pathways, respectively. Cells were treated with insulin or AICAR for 15 min, leptin for 60 min, or IL-15 for 24 h. Whole protein and plasma membrane fractions were prepared from myotubes, as previously described. For in vivo experiment, plasma membrane fraction and tissue lysate of soleus muscle were prepared.
(§2) Translocation of GLUT4 to the plasma membrane, as well as expression and phosphorylation levels of GLUT4-related regulators were estimated by western blot analysis. Briefly, equal amounts of proteins were separated by sodium dodecyl sulfate-polyacrylamide gel electrophoresis (SDS-PAGE). Separated proteins were transferred onto a polyvinylidene fluoride membrane and nonspecific binding sites were blocked using either Blocking One (to detect unphosphorylated proteins) or Blocking One-P (to detect phosphoproteins). The membrane was incubated overnight with an appropriate primary antibody for GLUT4 (1:5000), IR (1:10000), p-IRS1 (1:5000), IRS1 (1:5000), p-PI3K (1:5000), PI3K (1:10000), p-Akt (1:5000), Akt (1:10000), p-AMPKα (1:5000), AMPKα (1:10000), p-ACC (1:5000), ACC (1:10000), p-LKB1 (1:5000), LKB1 (1:10000), p-JAK2 (1:5000), JAK2 (1:5000), p-JAK3 (1:5000), JAK3 (1:10000), p-STAT1 (1:5000), STAT1 (1:10000), p-STAT3 (1:5000), STAT3 (1:10000), p-STAT5 (1:5000), STAT5 (1:10000), or β-actin (1:20000), and subsequently treated with the corresponding horseradish peroxidase-conjugated secondary antibody (1:50000) for 1 h. Specific immune complexes were developed using ImmunoStar® LD and detected with an ATTO Light-Capture II Western Blotting Detection System. Individual band density was calculated by ImageJ and normalized to the control.
42 after morphological analysis of differentiation status using phase-contrast microscopy.
43 Preparation of whole protein and plasma membrane fractions After serum starvation
44 for 18 h, myotubes were treated with various concentrations of quercetin or isorhamnetin (1–
45 10 μM) for 15 min; DMSO (final 0.1%) was used as a vehicle control. As positive controls,
46 100 nM insulin, 1 mM AICAR, or 10 nM leptin were used for insulin, AMPK or JAK2/STAT
47 signalling pathways, respectively. Cells were treated with insulin or AICAR for 15 min, or
48 leptin for 60 min. […]
(§3) 59 complexes were developed using ImmunoStar® LD and detected with an ATTO Light-Capture
(§4) 60 Ⅱ Western Blotting Detection System. Individual band density was calculated by ImageJ and […]

L6 myotubes = experiment: Enzymatic 2DG glucose uptake assay in L6 myotubes; conditions: 4 h; for glucose uptake, shape of concentration dependence: 0.01–10^4 nM
Description: (§5) In vitro cultured cell experiments were conducted according to a previously described protocol[6],[14]. Briefly, L6 myoblasts derived from rat skeletal muscle and of less than 40 passages were maintained in MEM supplemented with 10% foetal bovine serum (FBS) and antibiotics (100 U/ml penicillin and 100 μg/ml streptomycin) at 37 °C under a humidified atmosphere condition of 5% CO2 and 95% air. In each experiment, cells (2.2 × 10^4 cells/ml) were seeded into 96-well plates or 60-mm dishes for induction of differentiation into mature myotubes. After reaching confluence, cells were supplemented with differentiation medium containing 2% FBS and the same antibiotics for 7 days. Cells were used for each experiment after morphological analysis of differentiation status using phase-contrast microscopy. To explore the contribution of CaMKKβ or intracellular-free calcium ions in quercetin- and isorhamnetin-stimulated GLUT4 translocation, L6 cells were incubated in the presence or absence of 10 μM STO-609 and 25 μM […], respectively, for 30 min prior to treatment with either quercetin or isorhamnetin.
After serum starvation by incubating L6 myotubes in MEM with 0.2% BSA for 18 h, cells were treated with quercetin and isorhamnetin at the specified concentration (0.01 nM–10 μM) for 4 h in 0.2% BSA-containing medium. DMSO and insulin (100 nM) were used as a vehicle control and positive control, respectively. Glucose uptake was measured by an enzymatic 2DG uptake assay using myotubes on a 96-well plate as previously described.

LKB1 = experiment: Phosphorylation of LKB1 in L6 myotubes (western blot); conditions: 0.1–10 nM, 15 min
Description: as §1
(§6) Translocation of GLUT4 to the plasma membrane, as well as expression and phosphorylation levels of GLUT4-related regulators were estimated by western blot analysis. Briefly, equal amounts of proteins were separated by sodium dodecyl sulfate-polyacrylamide gel electrophoresis (SDS-PAGE). […] Specific immune complexes were developed using ImmunoStar® LD and detected with an ATTO Light-Capture II Western Blotting Detection System. Individual band density was calculated by ImageJ and normalized to the control.

IR = experiment: Phosphorylation of insulin receptor in L6 myotubes (immunoprecipitation, western blot); conditions: 0.1–10 nM, 15 min, all concentrations tested
Description: as §1
as §6, with “control. […]” for “control.”

GLUT4 = GLUT4 translocation to the plasma membrane in L6 myotubes (western blot); conditions: for GLUT4 translocation to the plasma membrane / expression level of GLUT4: 15 min; for expression level of GLUT4: 0.1–10 nM
Description: as §5, §1, §2

JAK2 = experiment: Phosphorylation of JAK2 in L6 myotubes (western blot); conditions: 15 min; for phosphorylation of JAK2: higher concentrations (1 μM and 10 μM)
Description: as §1
as §6, with “(SDS-PAGE). Separated proteins were transferred onto a polyvinylidene fluoride membrane and nonspecific binding sites were blocked using either Blocking One (to detect unphosphorylated proteins) or Blocking One-P (to detect phosphoproteins).” for “(SDS-PAGE).”, “control. […]” for “control.”
as §3, §4

[1] = 0.01 nM to 1 nM, compared with vehicle (DMSO)

SMILES | Akt phosphorylation (Akt; 0.1–10 nM) | Akt phosphorylation at Ser473 (Akt) | glucose uptake (L6 myotubes; [1]) | glucose uptake (L6 myotubes; 1 nM) | glucose uptake (L6 myotubes; 10 nM) | glucose uptake (L6 myotubes; 100 nM) | glucose uptake (L6 myotubes; 1 μM) | glucose uptake (L6 myotubes; 10 μM) | glucose uptake, shape of concentration dependence (L6 myotubes) | LKB1 phosphorylation (LKB1) | phosphorylation of insulin receptors (IRs) (IR) | GLUT4 translocation to the plasma membrane (GLUT4; 1 nM) | GLUT4 translocation to the plasma membrane (GLUT4; 10 nM) | expression level of GLUT4 (GLUT4) | phosphorylation of JAK2 (JAK2) | JAK2 phosphorylation (JAK2; physiological concentration range (0.1–10 nM)) | Akt phosphorylation at Thr308 and Ser473 (Akt; 10 nM) | glucose uptake (L6 myotubes; 0.1 nM) | GLUT4 translocation to the plasma membrane (GLUT4; 0.1 nM) | time-dependent changes in GLUT4 translocation (GLUT4; 1 nM, monitored 0–240 min)
COc1cc(-c2oc3cc(O)cc(O)c3c(=O)c2O)ccc1O [isorhamnetin, 3′-O-methyl quercetin] | did not affect Akt phosphorylation | significantly increased Akt phosphorylation | increased glucose uptake in a dose-dependent manner | significant increase | decreased glucose uptake | decreased glucose uptake | significant increase | significant increase | biphasic increase in glucose uptake | neither quercetin nor isorhamnetin increased LKB1 phosphorylation | failed to activate | significantly increased GLUT4 translocation | significantly increased GLUT4 translocation | remained unchanged | induced phosphorylation of JAK2 | effectively promoted |  |  |  | 
O=c1c(O)c(-c2ccc(O)c(O)c2)oc2cc(O)cc(O)c12 [quercetin, 3,3′,4′,5,7-pentahydroxy flavone] |  | significantly increased Akt phosphorylation | increased glucose uptake in a dose-dependent manner | significant increase | decreased glucose uptake | decreased glucose uptake | significant increase | significant increase | biphasic increase in glucose uptake | neither quercetin nor isorhamnetin increased LKB1 phosphorylation | failed to activate | significantly increased GLUT4 translocation | significantly increased GLUT4 translocation | remained unchanged | induced phosphorylation of JAK2 |  | increased Akt phosphorylation | significant increase | significantly increased GLUT4 translocation | bell-shaped curve
